24 compounds from patent US20240383922A1, “KRAS Modulating Compounds” (Gilead Sciences, Inc., priority 2023, published 2024) can be followed below.

For assay [1], the system named is cellular pERK in Kuramochi (WT KRAS) cell-line. The assay can be described thus: Cell based pERK assay (HTRF), Kuramochi. The note with it: Kuramochi (WT KRAS) cells, 2 hours incubation. The procedure:
(§1) Compounds were tested in a 384-well assay format for their ability to inhibit cellular pERK in Kuramochi (WT KRAS), MIA-PaCa-2 (KRAS-G12C), ASPC-1 (KRAS G12D), and NCI-H441 (KRAS-G12V) cell-lines. Compounds were serially diluted (1:3) in DMSO. On day −1, 80 uL of cells were plated per well in the 384 well tissue-culture plates (Greiner: Cat #781080) to seed 5000 cells per wells of AsPC-1 or 7500 cells of MIA-PaCa-2, NCI-H441, and Kuramochi cell lines in RPMI (Corning: Cat #10-040-CM) with 10% fetal bovine serum (FBS) (HyClone: Cat #SH30071-03) and 1× penicillin-streptomycin-glutamate (PSG) (Corning: Cat #30-009-CI) for […] and Kuramochi cell lines and DMEM (Corning: Cat #15-018-CM) with […] and 1× PSG for MKA-PaCa-2 cell line. The plates were then incubated overnight at 37° C. and 5% CO2. On day 0, 400 nL of compound/well was added into the cell plates and mixed 5 times by pipetting using a Beckmann Biomek FX. The cell plates were then incubated for 2 hours at 37° C. and 5% CO2. HTRF Advanced Phospho-ERK1/2 ([…]) Detection Kits (PerkinElmer: Cat #64AERPEG) were used to prepare the lysis and detection solution according to manufacturer protocol. Following the 2 hour incubation, 70 μL of medium was aspirated from the plates and 10 uL of lysis and detection solution was added to the plates using a Biotek EL406 washer and dispenser. Plates were sealed and stored overnight at room temperature. HTRF ratio (665 nm/615 nm) was read by Envision multimode reader (PerkinElmer) the next day. The TR-FRET ratios were normalized to a positive (saturating concentration of known inhibitor) and negative (DMSO) control and plotted against the log of compound concentration. IC50 values were defined as the compound concentration that causes a […] in normalized signal and were calculated using a sigmoidal dose-response model to generate curve fits.
A general note: TR-FRET usually uses a lanthanide donor and a delayed reading to cut background.

For assay [2], the system named is cellular pERK in MIA-PaCa-2 (KRAS-G12C) cell-line. The assay can be described thus: Cell based pERK assay (HTRF), MIA-PaCa-2. The note with it: MIA-PaCa-2 (KRAS-G12C) cells, 2 hours incubation, read-out: MIAPaCa2 pERK EC50. The procedure: as §1
Assay [3] deals with cellular pERK in NCI-H441 (KRAS-G12V) cell-line. The assay is described as follows: Cell based pERK assay (HTRF), NCI-H441. The conditions noted are these: NCI-H441 (KRAS-G12V) cells, 2 hours incubation. On the procedure:
as §1

The subject of assay [4] is cellular pERK in ASPC-1 (KRAS G12D) cell-line. The assay is described as follows: Cell based pERK assay (HTRF), ASPC-1. The note with it: ASPC-1 (KRAS G12D) cells, 2 hours incubation. The procedure:
as §1

Each structure is given as a SMILES string. Read-outs that look alike come from different tables or passages of the source.

The term EC50 denotes the concentration needed to bring the measured effect to its halfway point. In the case of `C#Cc1c(F)ccc2cc(O)cc(-c3nc4c5c(nc(OC[C@@]67CCCN6C[C@H](F)C7)nc5c3F)N3CCCOC[C@@H]3CC4)c12` [Example 6-1, 5-ethynyl-6-fluoro-4-((S)-1-fluoro-12-(((2R,7aS)-2-fluorotetrahydro-1H-pyrrolizin-7a(5H)-yl)methoxy)-4,5,5a,6,9,10-hexahydro-8H-7-oxa-3,10a,11,13-tetraazanaphtho[1,8-ab]heptalen-2-yl)naphthalen-2-ol], the EC50 was 1.35 nM in assay [1]; 0.11 nM in assay [2] (Homo sapiens); 0.42 nM in assay [3] (Homo sapiens); 1.27 nM in assay [4] (Homo sapiens, ASPC1).
As to `C#Cc1c(F)ccc2cc(O)cc(-c3nc4c5c(nc(OC[C@@]67CCCN6C[C@H](F)C7)nc5c3F)N3CCCOCC3CC4)c12` (stereo partly drawn) [Example 6-2], the EC50 in assay [1] was determined as 4.46 nM; in assay [2] (Homo sapiens) it was 1.01 nM; in assay [3] (Homo sapiens) it was 2.09 nM; in assay [4] (Homo sapiens, ASPC1) it was 3.74 nM.
On to `Oc1cc(-c2nc3c4c(nc(OC[C@@]56CCCN5C[C@H](F)C6)nc4c2F)N2CCCOC[C@H]2CC3)c2c(F)c(F)ccc2c1` [Example 6-3], for which the half-maximal effective concentration (EC50) in assay [1] was found to be 25.8 nM; in assay [2] (Homo sapiens), 28.9 nM; in assay [3] (Homo sapiens), 48 nM; in assay [4] (Homo sapiens, ASPC1), 91.9 nM.
In the same order, the values of `C#Cc1c(F)ccc2cccc(-c3nc4c5c(nc(OC[C@@]67CCCN6C[C@H](F)C7)nc5c3F)N3CCCOC[C@H]3CC4)c12` [Example 6-4] are greater than 1000 nM, greater than 1000 nM, greater than 1000 nM and greater than 1000 nM.
For the compound `C#Cc1c(F)ccc2cc(O)cc(-c3nc4c5c(nc(OC[C@@]67CCCN6C[C@H](F)C7)nc5c3F)N3CCCOC[C@H]3CC4)c12` [Example 6-5], the EC50 in assay [1] came to 44.9 nM; in assay [2] (Homo sapiens), 13.6 nM; in assay [3] (Homo sapiens), 32.2 nM; in assay [4] (Homo sapiens, ASPC1) it was 85.8 nM.
Consider `C#Cc1c(F)ccc2cccc(-c3nc4c5c(nc(OC[C@@]67CCCN6C[C@H](F)C7)nc5c3F)N3CCCOC[C@@H]3CC4)c12` [Example 6-7], for which the EC50 in assay [1] was 384 nM; in assay [2] (Homo sapiens) it was 328 nM; in assay [3] (Homo sapiens) it was 825 nM; in assay [4] (Homo sapiens, ASPC1), greater than 1000 nM.
In the same order, the values of `C#Cc1c(F)ccc2cccc(-c3nc4c5c(nc(OCC67CCCN6CCC7)nc5c3F)N3CCCOC[C@@H]3CC4)c12` [Example 6-9] are 376 nM, 430 nM, 729 nM and greater than 1000 nM.
In the same order, the values of `C#Cc1c(F)ccc2cccc(-c3nc4c5c(nc(OC[C@@]67CCCN6[C@H](CF)CC7)nc5c3F)N3CCCOC[C@@H]3CC4)c12` [Example 6-10] are 289 nM, 280 nM, 460 nM and 706 nM.
Take `C#Cc1c(F)ccc2cc(O)cc(-c3nc4c5c(nc(OCC67CCCN6CCC7)nc5c3F)N3CCCOC[C@@H]3CC4)c12` [Example 6-11]: the EC50 in assay [1] was 16.6 nM; in assay [2] (Homo sapiens) it was 1.68 nM; in assay [3] (Homo sapiens) it was 8.06 nM; in assay [4] (Homo sapiens, ASPC1) it was 24.4 nM.
Turning to `C#Cc1c(F)ccc2cc(O)cc(-c3nc4c5c(nc(OC[C@@]67CCCN6C[C@H](F)C7)nc5c3F)N3CC5(COCC3CC4)OCCO5)c12` (stereo partly drawn) [Example 6-16], the EC50 in assay [1] was 78.5 nM; in assay [2] (Homo sapiens), 265 nM; in assay [3] (Homo sapiens) it was greater than 1000 nM; in assay [4] (Homo sapiens, ASPC1), greater than 1000 nM.
On to `C#Cc1c(F)ccc2cc(O)cc(-c3nc4c5c(nc(OC[C@@]67CCCN6C[C@H](F)C7)nc5c3F)N3CCCOC[C@@H]3C=C4C)c12` [Example 6-18], for which the EC50 in assay [1] amounted to 1.99 nM; in assay [2] (Homo sapiens), 0.28 nM; in assay [3] (Homo sapiens), 0.56 nM; in assay [4] (Homo sapiens, ASPC1), 0.61 nM.
For `C#Cc1c(F)ccc2cc(O)cc(-c3nc4c5c(nc(OC[C@@]67CCCN6C[C@H](F)C7)nc5c3F)N3CCCOC[C@@H]3C=C4)c12` [Example 6-19], in that order: 4.01 nM, 0.47 nM, 1.15 nM and 1.18 nM.
Consider `C#Cc1c(F)ccc2cc(O)cc(-c3nc4c5c(nc(O[C@@H](C)[C@@H]6CCCN6C)nc5c3F)N3CCCOC[C@@H]3CC4)c12` [Example 6-24], for which the EC50 was 48.4 nM in assay [1]; 448 nM in assay [2] (Homo sapiens); 397 nM in assay [3] (Homo sapiens); greater than 1000 nM in assay [4] (Homo sapiens, ASPC1).
Regarding `C#Cc1c(F)ccc2cc(O)cc(-c3nc4c5c(nc(OC[C@@]67CCCN6[C@H](COC(=O)N(C)C)CC7)nc5c3F)N3CCCOC[C@@H]3CC4)c12` [Example 6-25], the EC50 in assay [1] is 17.9 nM; in assay [2] (Homo sapiens) it was 3.87 nM; in assay [3] (Homo sapiens), 4.57 nM; in assay [4] (Homo sapiens, ASPC1) it was 9.84 nM.
For `C#Cc1c(F)c(F)cc2cc(O)cc(-c3nc4c5c(nc(OC[C@@]67CCCN6C[C@H](F)C7)nc5c3F)N3CCCOC[C@@H]3CC4)c12` [Example 6-26], in that order: 2.61 nM, 1.59 nM, 4.04 nM and 1.19 nM.
Consider `C#Cc1c(F)ccc2cc(O)cc(-c3nc4c5c(nc(OC[C@@]67CCCN6C[C@H](F)C7)nc5c3F)N3CCCOC[C@@H]3C[C@@H]4F)c12` [Example 6-27], for which the EC50 was determined as 28.8 nM in assay [1]; 17.4 nM in assay [2] (Homo sapiens); 58.7 nM in assay [3] (Homo sapiens); 97.1 nM in assay [4] (Homo sapiens, ASPC1).
Take `C#Cc1c(F)ccc2cc(O)cc(-c3nc4c5c(nc(OC[C@@]67CCCN6C[C@H](F)C7)nc5c3F)N3CCC(O)CC[C@@H]3CC4)c12` (stereo partly drawn) [Example 6-29]: the EC50 in assay [1] came out at 46.3 nM; in assay [2] (Homo sapiens) it was 23.8 nM; in assay [3] (Homo sapiens), 452 nM; in assay [4] (Homo sapiens, ASPC1), 741 nM.
With `C#Cc1c(F)ccc2cc(N)cc(-c3nc4c5c(nc(OC[C@@]67CCCN6[C@H](CF)CC7)nc5c3F)N3CCCOC[C@@H]3CC4)c12` [Example 7-2], the EC50 in assay [1] is 3.44 nM; in assay [2] (Homo sapiens) it was 4.01 nM; in assay [3] (Homo sapiens), 6.23 nM; in assay [4] (Homo sapiens, ASPC1), 25.8 nM.
For `C#Cc1c(F)ccc2cc(N)cc(-c3nc4c5c(nc(OCC67CCCN6CCC7)nc5c3F)N3CCCOC[C@@H]3CC4)c12` [Example 7-3], the EC50 in assay [1] amounted to 6.12 nM; in assay [2] (Homo sapiens), 9.14 nM; in assay [3] (Homo sapiens), 20 nM; in assay [4] (Homo sapiens, ASPC1), 118 nM.
Turning to `C#Cc1c(F)ccc2cc(N)cc(-c3nc4c5c(nc(OC[C@@]67CCCN6C[C@H](F)C7)nc5c3F)N3CCCOC[C@H]3C=C4C)c12` [Example 7-8], the half-maximal effective concentration (EC50) in assay [1] was 41.1 nM; in assay [2] (Homo sapiens), 72.3 nM; in assay [3] (Homo sapiens), greater than 1000 nM; in assay [4] (Homo sapiens, ASPC1), 125 nM.
In the same order, the values of `C#Cc1c(F)ccc2cc(N)cc(-c3nc4c5c(nc(OC[C@@]67CCCN6C[C@H](F)C7)nc5c3F)N3CCCOC[C@@H]3C[C@H]4C)c12` [Example 7-9] are 7.23 nM, 9.04 nM, 16.9 nM and 54.9 nM.
For `C#Cc1c(F)ccc2cc(N)cc(-c3nc4c5c(nc(OC[C@@]67CCCN6C[C@H](F)C7)nc5c3F)N3CCCOC[C@@H]3C[C@@H]4C)c12` [Example 7-10], in that order: 208 nM, 218 nM, greater than 535 nM and greater than 697 nM.
On to `CCc1c(F)ccc2cc(O)cc(-c3nc4c5c(nc(OC[C@@]67CCCN6C[C@H](F)C7)nc5c3F)N3CCOCCC3CC4)c12` (stereo partly drawn) [Example 8-1, 5-ethyl-6-fluoro-4-(1-fluoro-12-(((2R,7a5)-2-fluorotetrahydro-1H-pyrrolizin-7a(5H)-yl)methoxy)-5,5a,6,7,9,10-hexahydro-4H-8-oxa-3,10a,11,13-tetraazanaphtho[1,8-ab]heptalen-2-yl)naphthalen-2-ol], for which the EC50 in assay [1] stood at 3.19 nM; in assay [2] it was 7.72 nM; in assay [3], 13 nM; in assay [4] (read-out: AsPC1 pERK EC50) it was 42.4 nM.
For the compound `CCc1c(F)ccc2cc(O)cc(-c3nc4c5c(nc(OC[C@@]67CCCN6C[C@H](F)C7)nc5c3F)N3CCCOCC3CC4)c12` (stereo partly drawn) [Example 8-2], the EC50 was found to be 8.04 nM in assay [1]; 13.8 nM in assay [2] (Homo sapiens); 21 nM in assay [3] (Homo sapiens); 23.6 nM in assay [4] (Homo sapiens, ASPC1).
